Test system: monosodium urate (MSU) crystal-induced air pouch inflammation
Experiment: Air Pouch Model 4: MSU crystal air pouch, rodent model of gout
Format: in vivo, male Sprague-Dawley rats
Conditions: 30 min before MSU; for Average Exudate Volume, Mean / Average Plasma Extravasation, OD620 nm, Mean / Total WBC in Sample, Mean / WBC in exudate, Mean: 4 h after MSU
Experimental: The objective of this study was to evaluate the anti-inflammatory potency of Tranilast. This evaluation was carried out in male Sprague-Dawley rats in a rodent model of gout. The animals were injected subcutaneously with 20 ml of sterile air, followed three days later by a supplemental injection with 20 ml of sterile air. Six days after the initial sterile air injection, the rats were injected intravenously with Evan's Blue and pretreated for thirty minutes with oral administration of 3 mg/kg, 10 mg/kg, 30 mg/kg, 100 mg/kg, or 300 mg/kg tranilast. After the pretreatment period, the rats were injected with 150 mg of monosodium urate (MSU) crystals (10 mg/ml) into the air pouch. Four hours later, the air pouch was injected with 5 ml heparinized saline and the entire contents of the air pouch removed, recording the total volume. The air pouch contents were evaluated for plasma extravasation and total white blood cell (WBC) count.
(§1) On day 0 the rats were anesthetized in a biological cabinet, the nape of the neck was cleansed with 70% isopropanol followed by iodine tincture (VEDCO). Twenty ml sterile (0.22 μm, Millipore, Cat. SLGSV255F) air was injected subcutaneously using a 23 G×2 inch needle fixed to a 20 ml syringe. The rats were returned to routine housing. No adverse reactions were observed.
as §1, with “day 3” for “day 0”, “μm, Fisher Scientific,” for “μm, Millipore,”, “Cat. 09-720-3)” for “Cat. SLGSV255F)”
On day 6 the rats were weighed (Mettler, Model PE3000, SN: F69474) and injected intravenously injected with 2 ml/kg Evans Blue. The animals were dosed orally with 0.06 ml/kg, 0.2 ml/kg, 0.6 ml/kg, 2 ml/kg, or 6 ml/kg tranilast or 6 ml/kg vehicle.
Thirty minutes after test material administration, the rats were anesthetized and six groups (2-7) were injected into the air pouch with 15 ml MSU using a 19 G×2 inch needle fitted to a 20 ml syringe. Group 1 was injected with 15 ml saline. The rats were returned to their cages, no adverse affects were observed.
Four hours after MSU/saline injection, the rats were anesthetized and 5 ml 10 U/ml heparinized saline was injected into the air pouch. The air pouch was gently massaged, the contents immediately removed using a 14 G×1 inch needle fitted to a 6 ml syringe, and the exudate volume recorded. An aliquot of the exudate was transferred to heparin-treated microtainer tubes (Becton Dickinson, Cat. 365958) for white blood cell (WBC) counting. The remainder of the exudate was centrifuged (Hermle Labrotechnik, Model Z200A, SN: 44060036), the supernatants removed and evaluated at OD620nm (Spectronic Unicam, Model 4000 1/4, SN: 3SGD003006) for plasma extravasation.

COc1ccc(/C=C/C(=O)Nc2ccccc2C(=O)O)cc1OC [Tranilast, 2-[[3-(3,4-dimethoxyphenyl)-1-oxo-2-propenyl]amino]benzoic acid]
Average Exudate Volume, Mean (3 mg/kg oral): 9.6 mL
Average Plasma Extravasation, OD620 nm, Mean (3 mg/kg oral): 1.940
Total WBC in Sample, Mean (3 mg/kg oral): 368228000
WBC in exudate, Mean (3 mg/kg oral): 38510000 cells/ml
Average Exudate Volume, Mean (10 mg/kg oral): 7.7 mL
Average Plasma Extravasation, OD620 nm, Mean (10 mg/kg oral): 1.662
Total WBC in Sample, Mean (10 mg/kg oral): 471436000
WBC in exudate, Mean (10 mg/kg oral): 61200000 cells/ml
Average Exudate Volume, Mean (30 mg/kg oral): 7.1 mL
Average Plasma Extravasation, OD620 nm, Mean (30 mg/kg oral): 1.089
Total WBC in Sample, Mean (30 mg/kg oral): 286935000
WBC in exudate, Mean (30 mg/kg oral): 39650000 cells/ml
Average Exudate Volume, Mean (100 mg/kg oral): 5.1 mL
Average Plasma Extravasation, OD620 nm, Mean (100 mg/kg oral): 1.180
Total WBC in Sample, Mean (100 mg/kg oral): 159916000
WBC in exudate, Mean (100 mg/kg oral): 31740000 cells/ml
Average Exudate Volume, Mean (300 mg/kg oral): 3.9 mL
Average Plasma Extravasation, OD620 nm, Mean (300 mg/kg oral): 0.613
Total WBC in Sample, Mean (300 mg/kg oral): 77451111
WBC in exudate, Mean (300 mg/kg oral): 19466667 cells/ml
inhibition of plasma extravasation (highest dose 300 mg/kg oral): 67%
inhibition of white blood cell infiltration (highest dose 300 mg/kg oral): 80%
effect on MSU-induced parameters (plasma extravasation, leukocyte infiltration) (oral 3-300 mg/kg): dose-dependent inhibition
